{"source": "patent US7704992B2", "about": "“Hepatitis C virus inhibitors” (Bristol-Myers Squibb Company, priority 2008, dated 2010)", "tested_on": "HCV 1b-377-neo replicon cells", "assay": "HCV Replicon assay, HCV 1b genotype", "assay_type": "cell-based", "conditions": "Hepatitis C virus, class symbol, read-out: EC50 range against HCV 1b", "experimental": "An HCV Replicon assay was utilized in the present disclosure, and was prepared, conducted and validated as described in commonly owned PCT/US2006/022197 and in O'Boyle et. al. Antimicrob Agents Chemother. 2005 April; 49(4): 1346-53.\nHCV 1b-377-neo replicon cells were used to test the currently described compound series as well as cells resistant to compound A containing a Y2065H mutation in NS5A (described in application PCT/US2006/022197). The compounds tested were determined to have more than 10-fold less inhibitory activity on cells containing the mutation than wild-type cells indicating a related mechanism of action between the two compound series. Thus, the compounds of the present disclosure can be effective to inhibit the function of the HCV NS5A protein and are understood to be as effective in combinations as previously described in application PCT/US2006/022197 and commonly owned WO/04014852. Further, the compounds of the present disclosure can be effective against the HCV 1b genotype. It should also be understood that the compounds of the present disclosure can inhibit multiple genotypes of HCV. […] In one embodiment compounds of the present disclosure are active against the 1a, 1b, 2a, 2b, 3a, 4a, and 5a genotypes.", "data": [{"smiles": "COC(=O)N[C@H](C(=O)N1CCC[C@H]1c1ncc(-c2ccc3c(c2)COCc2cc(-c4cnc([C@@H]5CCCN5C(=O)[C@@H](NC(=O)OC)C5CCOCC5)[nH]4)ccc2-3)[nH]1)C1CCOCC1", "note": "[Example 10, dimethyl (5,7-dihydrodibenzo[c,e]oxepine-3,9-diylbis(1H-imidazole-4,2-diyl(2S)-2,1-pyrrolidinediyl((1S)-2-oxo-1-(tetrahydro-2H-pyran-4-yl)-2,1-ethanediyl)))biscarbamate]", "values": [{"measurement": "EC50", "value": "0.101 to 0.999", "unit": "nM"}]}]}
